In patent US20260132132A1, “3A,4,5,6-TETRAHYDRO-1 H-PYRAZOLO[3,4-C]PYRIDIN-7(7AH)-ONE DERIVATIVES AS FACTOR XIIA INHIBITORS” (KALVISTA PHARMACEUTICALS LIMITED, priority 2022, published 2026) one finds IC50 and activity data, which are given here for 17 compounds.

Each structure is given as a SMILES string.

What all share (assay type): biochemical
Experiment [1] addresses T1, Human Factor XIIa (hFXIIa) (Homo sapiens, UniProt P00748).
T1 construct: purchased Enzyme Research Laboratories
T1 sequence (P00748 373-615 limits assumed): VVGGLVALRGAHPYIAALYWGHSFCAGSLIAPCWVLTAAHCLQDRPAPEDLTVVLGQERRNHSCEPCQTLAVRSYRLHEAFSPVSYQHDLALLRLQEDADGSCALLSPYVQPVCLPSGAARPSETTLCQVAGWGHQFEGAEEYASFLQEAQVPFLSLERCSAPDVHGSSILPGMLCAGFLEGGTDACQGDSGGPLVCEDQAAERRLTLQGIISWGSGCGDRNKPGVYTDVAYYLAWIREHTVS
T1 sequence (P00748 20-372 partner limits assumed): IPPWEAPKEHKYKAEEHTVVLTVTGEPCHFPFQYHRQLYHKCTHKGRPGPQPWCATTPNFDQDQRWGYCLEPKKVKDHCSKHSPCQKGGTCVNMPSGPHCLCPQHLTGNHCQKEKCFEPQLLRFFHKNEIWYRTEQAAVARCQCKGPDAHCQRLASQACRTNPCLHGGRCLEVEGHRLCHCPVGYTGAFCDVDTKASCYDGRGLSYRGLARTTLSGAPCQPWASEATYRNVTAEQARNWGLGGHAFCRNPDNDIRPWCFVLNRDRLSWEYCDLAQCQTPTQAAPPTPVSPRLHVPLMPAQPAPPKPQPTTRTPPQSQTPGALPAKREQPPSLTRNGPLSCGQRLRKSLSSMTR
The experiment in a line: Determination of Human Factor XIIa (hFXIIa) inhibition, fluorogenic substrate IC50 assay. Particulars: fluorogenic substrate H-DPro-Phe-Arg-AFC at Km, 25° C., read-out: Human FXIIa IC50. How it is done:
Determination of Human Factor XIIa (hFXIIa) inhibition
The Km for the cleavage of the substrate by hFXIIa was determined by standard transformation of the Michaelis-Menten equation, with subsequent inhibition assays performed at substrate Km concentration.

The next experiment deals with FXa (Homo sapiens, UniProt P00742). In words: Related protease inhibition: FXa, fluorogenic substrate. The note with it: fluorogenic substrate at Km, 25° C., H1-H3 = % activity at 40 μM; for activity at 40 µM: read-out: IC50 (human FXa) nM. Here is the method: (§1) Human serine protease enzyme Plasma Kallikrein, KLK1, FXa, Plasmin, Thrombin and Trypsin were assayed for enzymatic activity using an appropriate fluorogenic substrate at Km concentration, FXIa at fixed substrate concentration of 100 μM and various concentrations of the test compound.

In another experiment the target is Thrombin (Homo sapiens, UniProt P00734). In words: Related protease inhibition: Thrombin, fluorogenic substrate. The note with it: fluorogenic substrate at Km, 25° C., H1-H3 = % activity at 40 μM; for activity at 40 µM: read-out: IC50 (human thrombin) nM. Here is the method: as §1

Chain of FXa (P00742 235-488 limits assumed): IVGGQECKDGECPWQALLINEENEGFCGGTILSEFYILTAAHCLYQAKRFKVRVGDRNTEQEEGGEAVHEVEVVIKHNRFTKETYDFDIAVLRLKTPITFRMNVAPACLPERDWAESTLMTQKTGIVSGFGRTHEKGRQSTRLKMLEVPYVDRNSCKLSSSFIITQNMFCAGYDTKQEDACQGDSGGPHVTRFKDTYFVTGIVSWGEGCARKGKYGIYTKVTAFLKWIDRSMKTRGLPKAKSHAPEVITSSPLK
Chain of FXa (P00742 41-179 partner limits assumed): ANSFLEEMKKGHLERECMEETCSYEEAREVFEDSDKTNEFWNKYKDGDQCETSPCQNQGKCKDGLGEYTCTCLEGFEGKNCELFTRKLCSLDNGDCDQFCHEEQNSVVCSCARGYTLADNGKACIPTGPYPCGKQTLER

Regarding `CN1CCc2ccc(N3CCc4c(C(=O)NCC5CC5)nn(-c5cccc(CN)c5)c4C3=O)cc2C1=O` [Example 2019, 1-(3-(aminomethyl)phenyl)-N-(cyclopropylmethyl)-6-(2-methyl-1-oxo-1,2,3,4-tetrahydroisoquinolin-7-yl)-7-oxo-4,5,6,7-tetrahydro-1H-pyrazolo[3,4-c]pyridine-3-carboxamide], the figures for the IC50 (in experiment [1]; on FXa; on Thrombin) were 0.1 to 0.3 µM, 10 to 40 µM and 10 to 40 µM, respectively.
Turning to `CCNC(=O)c1nn(-c2cccc(Cl)c2)c2c1CCN(c1cccc(N3CC4(COC4)CC3=O)c1)C2=O` [Example 1428, 1-(3-chlorophenyl)-N-ethyl-7-oxo-6-(3-(7-oxo-2-oxa-6-azaspiro[3.4]octan-6-yl)phenyl)-4,5,6,7-tetrahydro-1H-pyrazolo[3,4-c]pyridine-3-carboxamide], in experiment [1], the IC50 (usually the concentration at which inhibition is half-maximal) fell in the range of 10 to 40 µM. Also, the activity at 40 µM on FXa and on Thrombin was above 80% each time.
For the compound `Cc1cc(CNC(=O)c2nn(-c3cc(Cl)cc(CN)c3)c3c2CCN(c2ccc4c(c2)C(=O)N(C)CC4)C3=O)nn1C` [Example 2017, 1-(3-(Aminomethyl)-5-chlorophenyl)-N-((1,5-dimethyl-1H-pyrazol-3-yl)methyl)-6-(2-methyl-1-oxo-1,2,3,4-tetrahydroisoquinolin-7-yl)-7-oxo-4,5,6,7-tetrahydro-1H-pyrazolo[3,4-c]pyridine-3-carboxamide], the IC50 lay in the range of 0.001 to 0.01 µM in experiment [1], 10 to 40 µM on FXa and 1 to 3 µM on Thrombin.
As to `CN1CCc2ccc(N3CCc4c(C(=O)NC5CCNCC5(F)F)nn(-c5cccc(Cl)c5)c4C3=O)cc2C1=O` (stereo not drawn) [Example 1424, 1-(3-chlorophenyl)-N-(3,3-difluoropiperidin-4-yl)-6-(2-methyl-1-oxo-1,2,3,4-tetrahydroisoquinolin-7-yl)-7-oxo-4,5,6,7-tetrahydro-1H-pyrazolo[3,4-c]pyridine-3-carboxamide], the IC50 in experiment [1] fell in the range of 0.1 to 0.3 µM. For the same compound, the activity at 40 µM is 20 to 80% at FXa and above 80% at Thrombin.
On the same counts, the results for `CCNC(=O)c1nn(-c2cccc(Cl)c2)c2c1CCN(c1cc3c(cn1)OCCN(C)C3=O)C2=O` [Example 1418, 1-(3-chlorophenyl)-N-ethyl-6-(4-methyl-5-oxo-2,3,4,5-tetrahydropyrido[4,3-f][1,4]oxazepin-7-yl)-7-oxo-4,5,6,7-tetrahydro-1H-pyrazolo[3,4-c]pyridine-3-carboxamide] are 0.3 to 1 µM, 20 to 80% and above 80%.
On the same counts, the results for `CN1CCc2ccc(N3CCc4c(C(=O)NC5COCC56CC6)nn(-c5cccc(Cl)c5)c4C3=O)cc2C1=O` (stereo not drawn) [Example 1438, 1-(3-chlorophenyl)-6-(2-methyl-1-oxo-1,2,3,4-tetrahydroisoquinolin-7-yl)-7-oxo-N-(5-oxaspiro[2.4]heptan-7-yl)-4,5,6,7-tetrahydro-1H-pyrazolo[3,4-c]pyridine-3-carboxamide] are 0.1 to 0.3 µM, above 80% and above 80%.
On the same counts, the results for `CCNC(=O)c1nn(-c2ccc(O)c(Cl)c2)c2c1CCN(c1ccc3c(c1)C(=O)N(C)CC3)C2=O` [Example 2054, 1-(3-chloro-4-hydroxyphenyl)-N-ethyl-6-(2-methyl-1-oxo-1,2,3,4-tetrahydroisoquinolin-7-yl)-7-oxo-4,5,6,7-tetrahydro-1H-pyrazolo[3,4-c]pyridine-3-carboxamide] are 3 to 10 µM, above 80% and above 80%.
On to `CN1CCc2ccc(N3CCc4c(C(=O)N[C@H]5COC[C@@H]5O)nn(-c5cccc(Cl)c5)c4C3=O)cc2C1=O` [Example 1415, 1-(3-chlorophenyl)-N-((3S,4R)-4-hydroxytetrahydrofuran-3-yl)-6-(2-methyl-1-oxo-1,2,3,4-tetrahydroisoquinolin-7-yl)-7-oxo-4,5,6,7-tetrahydro-1H-pyrazolo[3,4-c]pyridine-3-carboxamide], for which the IC50 in experiment [1] is 0.1 to 0.3 µM. Further, the activity at 40 µM on FXa and on Thrombin was above 80% throughout.
For `CN1CCc2ccc(N3CCc4c(C(=O)NCC5CC5)nn(-c5cc(Cl)cc(CN)c5)c4C3=O)cc2C1=O` [Example 2018, 1-(3-(aminomethyl)-5-chlorophenyl)-N-(cyclopropylmethyl)-6-(2-methyl-1-oxo-1,2,3,4-tetrahydroisoquinolin-7-yl)-7-oxo-4,5,6,7-tetrahydro-1H-pyrazolo[3,4-c]pyridine-3-carboxamide], the IC50 was 0.01 to 0.1 µM in experiment [1], above 40 µM at FXa and 10 to 40 µM against Thrombin.
Regarding `CCNC(=O)c1nn(-c2cccc(Cl)c2)c2c1CCN(c1cccc(N3C(=O)C[C@@H]4C[C@@H]43)c1)C2=O` (single isomer, unassigned) [Example 1408, 1-(3-Chlorophenyl)-N-ethyl-7-oxo-6-(3-((1S*,5S*)-3-oxo-2-azabicyclo[3.1.0]hexan-2-yl)phenyl)-4,5,6,7-tetrahydro-1H-pyrazolo[3,4-c]pyridine-3-carboxamide], the IC50 in experiment [1] was in the range of 0.3 to 1 µM; on FXa, 10 to 40 µM. Also, the activity at 40 µM at Thrombin lay within 20 to 80%.
In the case of `CCNC(=O)c1nn(-c2cccc(Cl)c2)c2c1CCN(c1ccc3c(c1)C(=O)N(C)C1CC3C1)C2=O` [Example 1434, 1-(3-chlorophenyl)-N-ethyl-6-(2-methyl-1-oxo-2,3,4,5-tetrahydro-1H-3,5-methanobenzo[c]azepin-8-yl)-7-oxo-4,5,6,7-tetrahydro-1H-pyrazolo[3,4-c]pyridine-3-carboxamide], the IC50 in experiment [1] was 1 to 3 µM. Further, the activity at 40 µM at FXa and on Thrombin was 20 to 80% throughout.
For `CCNC(=O)c1nn(-c2cc(C)cs2)c2c1CCN(c1ccc3c(c1)C(=O)N(C)CC3)C2=O` [Example 2045, N-ethyl-6-(2-methyl-1-oxo-1,2,3,4-tetrahydroisoquinolin-7-yl)-1-(4-methylthiophen-2-yl)-7-oxo-4,5,6,7-tetrahydro-1H-pyrazolo[3,4-c]pyridine-3-carboxamide], the IC50 in experiment [1] was in the range of 3 to 10 µM. Besides, the activity at 40 µM on FXa and on Thrombin was 20 to 80% in each case.
As for `CCNC(=O)c1nn(-c2cccc(OC)n2)c2c1CCN(c1ccc3c(c1)C(=O)N(C)CC3)C2=O` [Example 2037, N-ethyl-1-(6-methoxypyridin-2-yl)-6-(2-methyl-1-oxo-1,2,3,4-tetrahydroisoquinolin-7-yl)-7-oxo-4,5,6,7-tetrahydro-1H-pyrazolo[3,4-c]pyridine-3-carboxamide], in experiment [1], the IC50 is 10 to 40 µM. Also, the activity at 40 µM on FXa and on Thrombin was above 80% in each case.
As for `CCNC(=O)c1nn(-c2ccc(Cl)c(C)c2)c2c1CCN(c1ccc3c(c1)C(=O)N(C)CC3)C2=O` [Example 2057, 1-(4-chloro-3-methylphenyl)-N-ethyl-6-(2-methyl-1-oxo-1,2,3,4-tetrahydroisoquinolin-7-yl)-7-oxo-4,5,6,7-tetrahydro-1H-pyrazolo[3,4-c]pyridine-3-carboxamide], the IC50 in experiment [1] fell in the range of 1 to 3 µM. In addition, the activity at 40 µM at FXa and at Thrombin was 20 to 80% in each case.
On to `Cc1ncc(CNC(=O)c2nn(-c3cccc(Cl)c3)c3c2CCN(c2ccc4c(c2)C(=O)N(C)CC4)C3=O)o1` [Example 1194, 1-(3-chlorophenyl)-6-(2-methyl-1-oxo-1,2,3,4-tetrahydroisoquinolin-7-yl)-N-((2-methyloxazol-5-yl)methyl)-7-oxo-4,5,6,7-tetrahydro-1H-pyrazolo[3,4-c]pyridine-3-carboxamide], for which the results for the IC50 (in experiment [1]; against FXa) were 0.3 to 1 µM and above 40 µM, respectively.
For `NC(=O)CN1CCc2ccc(N3CCc4c(C(=O)NCC5CC5)nn(-c5cccc(Cl)c5)c4C3=O)cc2C1=O` [Example 1333, 6-(2-(2-amino-2-oxoethyl)-1-oxo-1,2,3,4-tetrahydroisoquinolin-7-yl)-1-(3-chlorophenyl)-N-(cyclopropylmethyl)-7-oxo-4,5,6,7-tetrahydro-1H-pyrazolo[3,4-c]pyridine-3-carboxamide] the same measures were 0.3 to 1 µM and above 4 µM.
On the same counts, the results for `CN1CCc2ccc(N3CCc4c(C(=O)NCC5CC5)nn(-c5cccc(Cl)n5)c4C3=O)cc2C1=O` [Example 2020, 1-(6-Chloropyridin-2-yl)-N-(cyclopropylmethyl)-6-(2-methyl-1-oxo-1,2,3,4-tetrahydroisoquinolin-7-yl)-7-oxo-4,5,6,7-tetrahydro-1H-pyrazolo[3,4-c]pyridine-3-carboxamide] are 0.1 to 0.3 µM and above 40 µM.
